Experimental data from patent publication US10947542B2, “Nucleic acid simultaneously inhibiting expression of AR gene and mTOR gene” (CURIGIN CO., LTD., priority 2017, dated 2021).

Experiments:
AR gene = AR gene expression inhibition by siRNA transfection, RT-PCR/qPCR of mRNA (PC3 and h460 cell lines); assay type: cell-based, human; settings: 80 pmole siRNA per well, 48 hours after transfection, normalized to GAPDH
Method: (§1) We dispensed PC3 and h460 cell lines into 12-well plates, and incubated the same at 37° C. and 5% CO2 condition in RPMI medium (Hyclone company) with 10% FBS (Hyclone company) until a cell confluent reaches 50%. Thereafter, 3 μl of lipofectamine 3000 (Invitrogen, Carlsbad, Calif., USA) was used to transfect the double target siRNA set 1 prepared in the Example 1 (si-AT 1) to the wells in which the cells were cultured at 80 pmole per well. Thus, AR and mTOR were knocked down simultaneously. In addition, siRNA to AR and siRNA to mTOR were transfected respectively, as listed in the following table 3, as a positive control. At 48 hours after the transfection, cells were crushed, and total RNA was extracted using GeneJET RNA Purification Kit (Invitrogen). While using the extracted total RNA as a template, the same was subjected to reverse transcription into cDNA via RT-PCR reaction. Then, mRNA expression levels of AR and mTOR by each siRNA and by the double target siRNA set 1 (si-AT1) according to the present disclosure was identified via q-PCR reaction. To identify the mRNA expression levels, the mRNA of AR and mTOR in the cell lysates knocked down by PCR conditions of Table 6 was converted to cDNA using the primer set from Table 4 and the reaction mixture from Table 5. […]

mTOR gene = mTOR gene expression inhibition by siRNA transfection, RT-PCR/qPCR of mRNA (PC3 and h460 cell lines); assay type: cell-based, human; settings: 80 pmole siRNA per well, 48 hours after transfection, normalized to GAPDH
Method: as §1

DU145 cell line = test: Cancer cell death by double target siRNA and anticancer agent, MTT cell viability; assay type: cell-based
Method: (§2) After incubating the DU145 cell line and the H460 cell line in 6-well plates respectively, we transfected the double target siRNA set 1 (si-AT1) according to the present disclosure thereto. Then, as 48 hours lapsed, the cells were treated with cisplatin 50 uM, etoposide 20 uM or Taxol 1 uM and were incubated for 16 hours. Thereafter, the cells were treated with 5 mg/mL MTT (Promega, Ltd.) and incubated for 4 hours, and then the medium was removed. The cells were treated with 150 μl of solubilization solution and stop solution and then were incubated at 37° C. for 4 hours. Absorbance of the reaction solution was measured at 570 nm and cell viability was calculated using the following equation. Cell viability=(Absorbance of experiment group at 570 nm/Absorbance of control at […])×100(%) [Equation 1]

H460 cell line = test: as above; assay type: cell-based
Method: as §2

[1] = siRNA transfected, after 48 hours Taxol 1 uM for 16 hours
[2] = siRNA transfected, after 48 hours etoposide 20 uM for 16 hours
[3] = anticancer agent without double target siRNA, cisplatin 50 uM, etoposide 20 uM or Taxol 1 uM, 16 hours

With “si-AT1: AR and mTOR double target double strand siRNA, 20mer, SEQ ID NOs: 1 and 2 (chain 1 GCUGCUGCUGCUGCCUGGGG; chain 2 CCCCAUGCAGCUGCAGCAGC; listed as RNA, chemistry not given here)” as the compound, how does the “mRNA expression level of AR” value (AR gene; PC3 cells) read?
Its value is “reduced”.

And the “mRNA expression level of AR” value (AR gene; h460 cell line)?
The value was “reduced”.

What about the “mRNA expression level of mTOR” value (mTOR gene; PC3 cells) of the same compound?
Its value is “reduced”.

What about the “mRNA expression level of mTOR” value (mTOR gene; h460 cell line) of the same compound?
The value was “reduced”.

What about the “cancer cell death (cell viability, MTT)” value (DU145 cell line; siRNA alone ("no treat", no anticancer agent)) of the same compound?
The value was “caused apoptosis”.

And the “cancer cell death (cell viability, MTT)” value (DU145 cell line; [1])?
The value was “significant improvement in the DU145 cell death”.

What about the “cancer cell death (cell viability, MTT)” value (DU145 cell line; siRNA transfected, after 48 hours cisplatin 50 uM for 16 hours) of the same compound?
Its value is “induced the apoptosis”.

What about the “cancer cell death (cell viability, MTT)” value (DU145 cell line; [2]) of the same compound?
Its value is “significant improvement in the DU145 cell death”.

What about the “cancer cell death (cell viability, MTT)” value (H460 cell line; siRNA alone) of the same compound?
The value was “showed apoptosis effect”.

And the “cancer cell death (cell viability, MTT)” value (H460 cell line; [1])?
The value was “significant anticancer activity”.

What about the “cancer cell death (cell viability, MTT)” value (H460 cell line; [2]) of the same compound?
The value was “significant anticancer activity”.

For `N.N.[Cl][Pt][Cl]` [cisplatin, reference compound], which “cancer cell death (cell viability, MTT)” value (DU145 cell line; [3]) is on record?
Its value is “apoptosis effect was not achieved”.

For `COc1cc([C@@H]2c3cc4c(cc3[C@@H](O[C@@H]3O[C@@H]5CO[C@@H](C)O[C@H]5[C@H](O)[C@H]3O)[C@H]3COC(=O)[C@H]23)OCO4)cc(OC)c1O` [etoposide, reference compound], which “cancer cell death (cell viability, MTT)” value (DU145 cell line; [3]) is on record?
The value was “a little anticancer activity”.

For `CC(=O)O[C@H]1C(=O)[C@@]2(C)[C@H]([C@H](OC(=O)c3ccccc3)[C@]3(O)C[C@H](OC(=O)[C@H](O)[C@@H](NC(=O)c4ccccc4)c4ccccc4)C(C)=C1C3(C)C)[C@]1(OC(C)=O)CO[C@@H]1C[C@@H]2O` [taxol, reference compound], which “cancer cell death (cell viability, MTT)” value (DU145 cell line; [3]) is on record?
Its value is “a little anticancer activity”.
